In patent US20220306695A1, “COMPSTATIN ANALOGUES AND THEIR MEDICAL USES” (priority 2019, published 2022):
Read-outs that look alike come from different tables or passages of the source. Starred links: 1 amine or outer side, 2 acyl side, 3 side chain; linkers in the order of their positions; H or OH if unused. Positions of bridges follow the written chain, without caps; N, C: chain ends. Non-standard residues stand in square brackets, D forms with d. Residues, ends and D or L forms follow the SMILES beside them. Groups on a side chain read outwards from the residue. *: point of attachment. C20 diacid = O=C(O)CCCCCCCCCCCCCCCCCCC(=O)*; Trp(1-Me) = Cn1cc(C[C@H](N)C(=O)O)c2ccccc21; Abu(4-yl) = O=C([C@H](CC[*:3])N[*:1])[*:2]; C18 diacid = O=C(O)CCCCCCCCCCCCCCCCC(=O)*; γGlu = O=C(O)[C@H](CCC(=O)[*:2])N[*:1]; AEEA = NCCOCCOCC(=O)O; Sar = CNCC(=O)O

Key:
[1] = system: classical complement pathway; test: In vitro haemolysis assay (inhibition of classical complement pathway); assay type: cell-based, human
How it was run: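 Serially diluted compound (9 points) was preincubated 15 min at room temperature with diluted human serum, titrated per batch to give 70-90% maximal haemolysis, in Tris/casein buffer pH 7.4 with Mg2+/Ca2+. Antibody-sensitized sheep erythrocytes were then added for 30 min at 37° C, and the reaction was stopped with EDTA. Haemolysis was read at A405, with IC50 from 4PL fit.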

[2] = Solubility test at 10 mg/mL (visual inspection and light scattering); assay type: physicochemical; settings: for Solubility, Condition 1 Acetate pH 4: 10 mg/mL compound in 100 mM acetate pH 4; for Solubility, Condition 2 Acetate pH 5: 10 mg/mL compound in 100 mM acetate pH 5; for Solubility, Condition 3 Phosphate pH 6: 10 mg/mL compound in 100 mM phosphate pH 6; for Solubility, Condition 4 Phosphate pH 7: 10 mg/mL compound in 100 mM phosphate pH 7; for Solubility, Condition 5 Phosphate pH 7.5: 10 mg/mL compound in 100 mM phosphate pH 7.5
[3] = target: T1, Human C3 (Homo sapiens, UniProt P01024); test: Affinity measurement by surface plasmon resonance (SPR) with immobilized C3; assay type: binding; settings: Table 7; immobilized C3, 25° C., pH 7.4
T1 construct: purchased Complement tech A1 13c (so in the source)
Experimental: Surface plasmon resonance (SPR) was used to characterize peptides with respect to their binding affinity (Kd) for C3. Human C3 (Complement tech cat #A1 13c) was immobilised on individual flow cells of CM5 sensor chips (GE Healthcare) using standard amine coupling to a density of approximately 3000 resonance units (RU) in a buffer consisting of 10 mM phosphate pH 7.4, 150 mM NaCl, 0.05% Tween20. For interaction experiments a multi-cycle experiment approach was used and performed using either a Biacore™ T200 or Biacore™ X100 instrument (GE Healthcare) at 25° C. Peptides were injected in increasing concentration series (5-8 different concentrations) for 60-120 s at a flow rate of 30 μL/min in a buffer consisting of 10 mM Tris buffer at pH 7.4, with 150 mM NaCl and 0.05% Tween20. This was followed by a dissociation period for up to 10 min. […] Sensorgrams were double-referenced (reference surface, blanks) prior to analysis of the kinetic profiles by globally fitting data to a 1:1 Langmuir binding model to obtain association and dissociation rates for calculation of the equilibrium dissociation constant Kd. Each peptide was tested at in at least 2 independent experiments.

[4] = Table 3, human serum, sensitized sheep red blood cells, read-out: IC50[nM], in vitro analysis of inhibition of hemolysis
[5] = Table 4, valine 3 versus isoleucine 3 pairs, read-out: CP hemolysis IC50

Which results are given for `CC[C@H](C)[C@H](NC(C)=O)C(=O)N[C@H]1CSSC[C@@H](C(=O)N[C@H](C(=O)N[C@@H](CCC(=O)O)C(=O)NCC(=O)N[C@@H](CCC(=O)O)C(N)=O)[C@@H](C)O)NC(=O)[C@H](CCCNC(=N)N)NC(=O)[C@H](Cc2c[nH]cn2)NC(=O)[C@H](CCC(=O)O)NC(=O)CNC(=O)[C@H](Cc2c[nH]c3ccccc23)NC(=O)[C@H](CC(=O)O)NC(=O)[C@H](CCC(N)=O)NC(=O)[C@H](Cc2c[nH]c3ccccc23)NC(=O)[C@H]([C@@H](C)CC)NC1=O` [Compound 24] (Ac-ICIWQDWGEHRCTEGE-NH2; disulfide 2-12)?
IC50 [1, 4]: < 100 nM; IC50 [1, 5]: 90 nM; Solubility, Condition 1 Acetate pH 4 [2]: − (denotes lack of solubility at the given condition, as UV absorbance at 340 nm exceeds 0.1 AU and/or it is visibly turbid or contains particles.); Solubility, Condition 2 Acetate pH 5 [2]: − (denotes lack of solubility at the given condition, as UV absorbance at 340 nm exceeds 0.1 AU and/or it is visibly turbid or contains particles.); Solubility, Condition 3 Phosphate pH 6 [2]: − (denotes lack of solubility at the given condition, as UV absorbance at 340 nm exceeds 0.1 AU and/or it is visibly turbid or contains particles.); Solubility, Condition 4 Phosphate pH 7 [2]: + (denotes solubility at the given condition, as determined by UV absorbance being less than 0.1 AU at 340 nm and the sample being clear when manually inspected.); Solubility, Condition 5 Phosphate pH 7.5 [2]: + (denotes solubility at the given condition, as determined by UV absorbance being less than 0.1 AU at 340 nm and the sample being clear when manually inspected.); Solubility by visual inspection and absorbance, condition 1, 2 and 3 ([2]; 10 mg/mL, acetate pH 4.0, acetate pH 5.0, phosphate pH 6.0, all exceeding 0.1 AU threshold): cloudy; Solubility by visual inspection and absorbance, condition 4 and 5 ([2]; 10 mg/mL, phosphate pH 7 and phosphate pH 7.5): good conditions for solubility; Kd [3]: 28 nM

For `CC[C@H](C)[C@@H]1NC(=O)[C@@H](NC(=O)[C@H](Cc2ccccc2)NC(=O)[C@H](C)NC(=O)[C@H](CO)NC(=O)CNC(=O)[C@H](CCC(=O)O)NC(C)=O)CSSC[C@@H](C(=O)N(C)CC(=O)N[C@@H](CCC(=O)O)C(N)=O)NC(=O)[C@H](CCCNC(=N)N)NC(=O)[C@H](Cc2c[nH]cn2)NC(=O)[C@H](CCC(=O)O)NC(=O)CNC(=O)[C@H](Cc2c[nH]c3ccccc23)NC(=O)[C@H](CC(=O)O)NC(=O)[C@H](CCC(N)=O)NC(=O)[C@H](Cc2cn(C)c3ccccc23)NC1=O` [Compound 53] (Ac-EGSAFCI[Trp(1-Me)]QDWGEHRC[Sar]E-NH2; disulfide 6-16), which IC50 [1, 4] is on record?
Its IC50 is less than 100 nM.

And the “Solubility, Condition 1 Acetate pH 4” value [2]?
Its value is “− (denotes lack of solubility at the given condition, as UV absorbance at 340 nm exceeds 0.1 AU and/or it is visibly turbid or contains particles.)”.

And the “Solubility, Condition 2 Acetate pH 5” value [2]?
Its value is “− (denotes lack of solubility at the given condition, as UV absorbance at 340 nm exceeds 0.1 AU and/or it is visibly turbid or contains particles.)”.

What about the “Solubility, Condition 3 Phosphate pH 6” value [2] of the same compound?
The value was “+ (denotes solubility at the given condition, as determined by UV absorbance being less than 0.1 AU at 340 nm and the sample being clear when manually inspected.)”.

What about the “Solubility, Condition 4 Phosphate pH 7” value [2] of the same compound?
The value was “+ (denotes solubility at the given condition, as determined by UV absorbance being less than 0.1 AU at 340 nm and the sample being clear when manually inspected.)”.

What about the “Solubility, Condition 5 Phosphate pH 7.5” value [2] of the same compound?
Its value is “+ (denotes solubility at the given condition, as determined by UV absorbance being less than 0.1 AU at 340 nm and the sample being clear when manually inspected.)”.

And the Kd [3]?
The Kd was 1.4 nM.

With `CC[C@H](C)[C@H](NC(C)=O)C(=O)N[C@H]1CSSC[C@@H](C(=O)N[C@H](C(=O)NCC(=O)N[C@@H](C)C(=O)N[C@@H](CCC(=O)O)C(=O)N[C@@H](CO)C(N)=O)[C@@H](C)O)NC(=O)[C@H](CCCNC(=N)N)NC(=O)[C@H](Cc2c[nH]cn2)NC(=O)[C@H](CCC(=O)O)NC(=O)CNC(=O)[C@H](Cc2c[nH]c3ccccc23)NC(=O)[C@H](CC(=O)O)NC(=O)[C@H](CCC(N)=O)NC(=O)[C@H](Cc2c[nH]c3ccccc23)NC(=O)[C@H]([C@@H](C)CC)NC1=O` [Compound 15] (Ac-ICIWQDWGEHRCTGAES-NH2; disulfide 2-12) as the compound, how does the IC50 [1, 4] read?
Its IC50 is less than 100 nM.

And the IC50 [1, 5]?
The IC50 was 47 nM.

What about the “Solubility, Condition 1 Acetate pH 4” value [2] of the same compound?
The value was “+ (denotes solubility at the given condition, as determined by UV absorbance being less than 0.1 AU at 340 nm and the sample being clear when manually inspected.)”.

And the “Solubility, Condition 2 Acetate pH 5” value [2]?
Its value is “− (denotes lack of solubility at the given condition, as UV absorbance at 340 nm exceeds 0.1 AU and/or it is visibly turbid or contains particles.)”.

And the “Solubility, Condition 3 Phosphate pH 6” value [2]?
Its value is “− (denotes lack of solubility at the given condition, as UV absorbance at 340 nm exceeds 0.1 AU and/or it is visibly turbid or contains particles.)”.

And the “Solubility, Condition 4 Phosphate pH 7” value [2]?
Its value is “+ (denotes solubility at the given condition, as determined by UV absorbance being less than 0.1 AU at 340 nm and the sample being clear when manually inspected.)”.

And the “Solubility, Condition 5 Phosphate pH 7.5” value [2]?
Its value is “+ (denotes solubility at the given condition, as determined by UV absorbance being less than 0.1 AU at 340 nm and the sample being clear when manually inspected.)”.

What about the Kd [3] of the same compound?
Its Kd is 14 nM.

With `CC[C@H](C)[C@@H]1NC(=O)[C@@H](NC(=O)[C@H](Cc2ccccc2)NC(=O)[C@H](CCC(=O)O)NC(=O)[C@H](CO)NC(C)=O)CSSC[C@@H](C(=O)N(C)CC(=O)N[C@@H](CCC(=O)O)C(=O)NCCOCCOCC(=O)NCCOCCOCC(=O)N[C@@H](CCCCNC(=O)CC[C@H](NC(=O)CNC(=O)CC[C@H](NC(=O)CCCCCCCCCCCCCCCCC(=O)O)C(=O)O)C(=O)O)C(N)=O)NC(=O)[C@H](CCCNC(=N)N)NC(=O)[C@H](Cc2c[nH]cn2)NC(=O)[C@H](CCC(=O)O)NC(=O)CN(C)C(=O)[C@H](Cc2c[nH]c3ccccc23)NC(=O)[C@H](CC(=O)O)NC(=O)[C@H](CCC(N)=O)NC(=O)[C@H](Cc2cn(C)c3ccccc23)NC1=O` [Compound 144, Ac-SEFC(1)I[1-Me-Trp]QDW[Sar]EHRC(1)[Sar]E[Peg3][Peg3]-K([17-carboxy-heptadecanoyl][γGlu]G[γGlu])-NH2] (Ac-SEFCI[Trp(1-Me)]QDW[Sar]EHRC[Sar]E[AEEA][AEEA]K([γGlu-Gly-γGlu-C18 diacid])-NH2; disulfide 4-14) as the compound, how does the IC50 [1, 4] read?
Its IC50 is less than 100 nM.

And the Kd [3]?
The Kd was 1.5 nM.

For `CC[C@H](C)[C@@H]1NC(=O)[C@@H](NC(=O)[C@H](Cc2ccccc2)NC(=O)[C@H](CCC(=O)O)NC(=O)[C@H](CO)NC(C)=O)CSSC[C@@H](C(=O)N(C)CC(=O)N[C@@H](CCC(=O)O)C(=O)NCC(=O)N[C@@H](CCC(=O)O)C(=O)NCCOCCOCC(=O)NCCOCCOCC(=O)N[C@@H](CCCCNC(=O)CC[C@H](NC(=O)CNC(=O)CC[C@H](NC(=O)CCCCCCCCCCCCCCCCCCC(=O)O)C(=O)O)C(=O)O)C(N)=O)NC(=O)[C@H](CCCNC(=N)N)NC(=O)[C@H](Cc2c[nH]cn2)NC(=O)[C@H](CCC(=O)O)NC(=O)CNC(=O)[C@H](Cc2c[nH]c3ccccc23)NC(=O)[C@H](CC(=O)O)NC(=O)[C@H](CCC(N)=O)NC(=O)[C@H](Cc2cn(C)c3ccccc23)NC1=O` [Compound 128] (Ac-SEFCI[Trp(1-Me)]QDWGEHRC[Sar]EGE[AEEA][AEEA]K([γGlu-Gly-γGlu-C20 diacid])-NH2; disulfide 4-14), which IC50 [1, 4] is on record?
The IC50 was less than 100 nM.

And the Kd [3]?
The Kd was 6.5 nM.

What does the source list for `CC[C@H](C)[C@@H]1NC(=O)[C@@H](NC(=O)[C@H](Cc2ccccc2)NC(=O)[C@H](CCC(=O)O)NC(=O)[C@H](CO)NC(C)=O)CCSC[C@@H](C(=O)N(C)CC(=O)N[C@@H](CCC(=O)O)C(=O)NCC(=O)N[C@@H](CCC(=O)O)C(=O)NCCOCCOCC(=O)NCCOCCOCC(=O)N[C@@H](CCCCNC(=O)CC[C@H](NC(=O)CNC(=O)CC[C@H](NC(=O)CCCCCCCCCCCCCCCCC(=O)O)C(=O)O)C(=O)O)C(N)=O)NC(=O)[C@H](CCCNC(=N)N)NC(=O)[C@H](Cc2c[nH]cn2)NC(=O)[C@H](CCC(=O)O)NC(=O)CNC(=O)[C@H](Cc2c[nH]c3ccccc23)NC(=O)[C@H](CC(=O)O)NC(=O)[C@H](CCC(N)=O)NC(=O)[C@H](Cc2cn(C)c3ccccc23)NC1=O` [Compound 152] (Ac-SEF[Abu(4-yl)]I[Trp(1-Me)]QDWGEHRC[Sar]EGE[AEEA][AEEA]K([γGlu-Gly-γGlu-C18 diacid])-NH2; thioether 4-14)?
IC50 [1, 4]: < 100 nM; Kd [3]: 16 nM
